# Test results reported in ChEMBL document CHEMBL1201862, “PubChem BioAssay data set” (2004).
# Calls of active or inactive are those of the source.
# Legend:
# [1] = HEp-2 cell cytotoxicity, dose response, cytotoxicity control for RSV inhibitor project, HTS (AID 2410); assay type: functional; conditions: human respiratory syncytial virus
# fMet-Leu-Phe receptor = target: T1, fMet-Leu-Phe receptor (Homo sapiens, UniProt P21462); assay: FPR ligands, dose response (AID 519); assay type: functional
# T1 sequence (P21462 whole entry): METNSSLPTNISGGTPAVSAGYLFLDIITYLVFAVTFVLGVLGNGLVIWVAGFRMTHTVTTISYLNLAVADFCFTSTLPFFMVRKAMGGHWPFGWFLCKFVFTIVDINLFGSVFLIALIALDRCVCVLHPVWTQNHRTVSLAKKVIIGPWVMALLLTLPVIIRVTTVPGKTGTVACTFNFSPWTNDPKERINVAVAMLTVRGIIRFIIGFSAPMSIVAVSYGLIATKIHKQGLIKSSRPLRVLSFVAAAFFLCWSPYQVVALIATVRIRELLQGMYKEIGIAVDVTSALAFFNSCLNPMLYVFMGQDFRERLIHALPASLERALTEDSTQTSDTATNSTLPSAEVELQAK
# [2] = inhibitors of Vif binding to APOBEC3G peptide, primary screen, biochemical, TR-FRET, GST-Vif 1-94, biotin-A3G peptide, dose response retest (AID 1117319); assay type: functional;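 further: TR-FRET signal of purified GST-Vif binding a biotinylated A3G peptide; inhibitors lower the FRET signal by blocking Vif and A3G binding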
# HEK293 [3] = assay: NOD1 signaling inhibitors, primary screen, cell-based, luminescence, uHTS (AID 1578); assay type: functional; conditions: Homo sapiens
# BJ [4] = assay: cytotoxicity toward BJ-TERT fibroblasts, dose response, cell-based, RAS-independent, luminescence (AID 1933); assay type: functional; conditions: Homo sapiens
# HEK293 [5] = assay: cells; assay type: functional, cell-based; conditions: Homo sapiens
# BJ [6] = assay: cells; assay type: functional, cell-based; conditions: Homo sapiens
# HEK293 [7] = assay: cells; assay type: functional, cell-based; conditions: Homo sapiens; remark: listed apart in the source
# HEK293 [8] = assay: NOD2 signaling inhibitors in MDP-stimulated cells, cell-based, uHTS, luminescence (AID 2001); assay type: functional; conditions: Homo sapiens
# BJ [9] = assay: cytotoxicity toward BJ-TERT-LT-ST fibroblasts, dose response, cell-based, RAS-independent, luminescence (AID 1935); assay type: functional; conditions: Homo sapiens;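 further: BJ fibroblasts immortalized with TERT plus LT and ST oncogenes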
# [10] = cytotoxicity toward DRD oncogenic fibroblasts, dose response, cell-based, non-viral oncogenic, luminescence (AID 1934); assay type: functional; conditions: Homo sapiens
# [11] = target: T2, Replicative DNA helicase DnaB (Mycobacterium tuberculosis, UniProt P9WMR3); assay: DnaB intein splicing inhibitors, dose response, biochemical, cell-free fluorescence (AID 449749); assay type: functional
# T2 sequence (P9WMR3 whole entry): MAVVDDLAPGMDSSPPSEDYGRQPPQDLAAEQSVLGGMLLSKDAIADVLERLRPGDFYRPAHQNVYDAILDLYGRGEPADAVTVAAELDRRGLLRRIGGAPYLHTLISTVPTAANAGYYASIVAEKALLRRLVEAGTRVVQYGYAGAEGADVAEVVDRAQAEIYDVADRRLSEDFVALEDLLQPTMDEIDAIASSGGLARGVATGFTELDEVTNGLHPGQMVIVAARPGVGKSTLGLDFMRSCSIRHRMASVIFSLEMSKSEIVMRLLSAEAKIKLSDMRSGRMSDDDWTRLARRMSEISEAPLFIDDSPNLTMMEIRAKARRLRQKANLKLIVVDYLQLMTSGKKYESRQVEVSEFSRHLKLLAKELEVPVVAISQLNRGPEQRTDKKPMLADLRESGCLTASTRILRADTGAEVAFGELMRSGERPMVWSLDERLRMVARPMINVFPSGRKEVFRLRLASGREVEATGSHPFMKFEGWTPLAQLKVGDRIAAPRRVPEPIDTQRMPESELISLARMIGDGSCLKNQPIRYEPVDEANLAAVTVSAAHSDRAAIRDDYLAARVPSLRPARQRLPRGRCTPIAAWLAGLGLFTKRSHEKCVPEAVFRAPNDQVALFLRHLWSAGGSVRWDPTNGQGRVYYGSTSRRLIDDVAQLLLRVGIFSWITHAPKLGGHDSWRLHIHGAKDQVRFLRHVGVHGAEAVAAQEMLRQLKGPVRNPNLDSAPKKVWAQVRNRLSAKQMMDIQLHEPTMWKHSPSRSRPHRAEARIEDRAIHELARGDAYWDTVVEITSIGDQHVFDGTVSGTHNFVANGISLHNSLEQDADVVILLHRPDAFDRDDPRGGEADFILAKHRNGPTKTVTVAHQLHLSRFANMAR
# Protein RecA = target: T3, Protein RecA (Mycobacterium tuberculosis, UniProt P9WHJ3); assay: Fluorescence Cell-Free Homogeneous Dose Retest to Identify Inhibitors of RecA-Intein Splicing Activity. [Related pubchem assays (depositor defined):AID2097, AID2223, AID489010, AID492950]; assay type: functional
# T3 sequence (P9WHJ3 whole entry): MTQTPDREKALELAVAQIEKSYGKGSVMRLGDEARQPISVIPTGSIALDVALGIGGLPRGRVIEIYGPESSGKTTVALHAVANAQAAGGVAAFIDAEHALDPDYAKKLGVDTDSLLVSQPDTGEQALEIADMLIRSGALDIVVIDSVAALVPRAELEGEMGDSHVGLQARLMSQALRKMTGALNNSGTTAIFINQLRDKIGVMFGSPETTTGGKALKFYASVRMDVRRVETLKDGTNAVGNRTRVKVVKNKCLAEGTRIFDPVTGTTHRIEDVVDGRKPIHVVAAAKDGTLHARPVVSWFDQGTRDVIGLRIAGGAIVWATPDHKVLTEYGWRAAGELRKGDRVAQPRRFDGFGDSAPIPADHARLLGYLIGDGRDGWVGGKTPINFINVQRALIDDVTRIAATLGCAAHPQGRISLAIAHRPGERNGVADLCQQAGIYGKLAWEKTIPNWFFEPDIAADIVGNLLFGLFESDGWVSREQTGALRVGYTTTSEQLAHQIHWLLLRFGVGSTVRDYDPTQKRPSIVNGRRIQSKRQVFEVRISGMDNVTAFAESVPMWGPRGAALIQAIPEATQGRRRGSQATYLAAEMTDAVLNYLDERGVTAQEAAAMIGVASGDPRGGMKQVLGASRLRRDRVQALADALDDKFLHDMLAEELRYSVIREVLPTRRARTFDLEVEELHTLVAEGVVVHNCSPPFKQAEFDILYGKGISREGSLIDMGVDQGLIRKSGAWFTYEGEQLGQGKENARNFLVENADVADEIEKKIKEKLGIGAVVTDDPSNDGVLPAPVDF
# [12] = target: Heat shock protein HSP 90-alpha (Homo sapiens, UniProt P07900); assay type: functional, organism-based
# [13] = target: Dual specificity tyrosine-phosphorylation-regulated kinase 1A (Rattus norvegicus, UniProt Q63470); assay type: biochemical, Homo sapiens
# Fatty acid synthase [14] = target: T4, Fatty acid synthase (Homo sapiens, UniProt P49327); assay: FAS thioesterase domain inhibitors, dose response, biochemical, endpoint fluorescence intensity, uHTS hits (AID 624327); assay type: functional;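 further: fluorescence from hydrolysis of an O-methyl fluorescein acyl ester substrate by the enzyme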
# T4 sequence (P49327 whole entry, the tested form may be a part): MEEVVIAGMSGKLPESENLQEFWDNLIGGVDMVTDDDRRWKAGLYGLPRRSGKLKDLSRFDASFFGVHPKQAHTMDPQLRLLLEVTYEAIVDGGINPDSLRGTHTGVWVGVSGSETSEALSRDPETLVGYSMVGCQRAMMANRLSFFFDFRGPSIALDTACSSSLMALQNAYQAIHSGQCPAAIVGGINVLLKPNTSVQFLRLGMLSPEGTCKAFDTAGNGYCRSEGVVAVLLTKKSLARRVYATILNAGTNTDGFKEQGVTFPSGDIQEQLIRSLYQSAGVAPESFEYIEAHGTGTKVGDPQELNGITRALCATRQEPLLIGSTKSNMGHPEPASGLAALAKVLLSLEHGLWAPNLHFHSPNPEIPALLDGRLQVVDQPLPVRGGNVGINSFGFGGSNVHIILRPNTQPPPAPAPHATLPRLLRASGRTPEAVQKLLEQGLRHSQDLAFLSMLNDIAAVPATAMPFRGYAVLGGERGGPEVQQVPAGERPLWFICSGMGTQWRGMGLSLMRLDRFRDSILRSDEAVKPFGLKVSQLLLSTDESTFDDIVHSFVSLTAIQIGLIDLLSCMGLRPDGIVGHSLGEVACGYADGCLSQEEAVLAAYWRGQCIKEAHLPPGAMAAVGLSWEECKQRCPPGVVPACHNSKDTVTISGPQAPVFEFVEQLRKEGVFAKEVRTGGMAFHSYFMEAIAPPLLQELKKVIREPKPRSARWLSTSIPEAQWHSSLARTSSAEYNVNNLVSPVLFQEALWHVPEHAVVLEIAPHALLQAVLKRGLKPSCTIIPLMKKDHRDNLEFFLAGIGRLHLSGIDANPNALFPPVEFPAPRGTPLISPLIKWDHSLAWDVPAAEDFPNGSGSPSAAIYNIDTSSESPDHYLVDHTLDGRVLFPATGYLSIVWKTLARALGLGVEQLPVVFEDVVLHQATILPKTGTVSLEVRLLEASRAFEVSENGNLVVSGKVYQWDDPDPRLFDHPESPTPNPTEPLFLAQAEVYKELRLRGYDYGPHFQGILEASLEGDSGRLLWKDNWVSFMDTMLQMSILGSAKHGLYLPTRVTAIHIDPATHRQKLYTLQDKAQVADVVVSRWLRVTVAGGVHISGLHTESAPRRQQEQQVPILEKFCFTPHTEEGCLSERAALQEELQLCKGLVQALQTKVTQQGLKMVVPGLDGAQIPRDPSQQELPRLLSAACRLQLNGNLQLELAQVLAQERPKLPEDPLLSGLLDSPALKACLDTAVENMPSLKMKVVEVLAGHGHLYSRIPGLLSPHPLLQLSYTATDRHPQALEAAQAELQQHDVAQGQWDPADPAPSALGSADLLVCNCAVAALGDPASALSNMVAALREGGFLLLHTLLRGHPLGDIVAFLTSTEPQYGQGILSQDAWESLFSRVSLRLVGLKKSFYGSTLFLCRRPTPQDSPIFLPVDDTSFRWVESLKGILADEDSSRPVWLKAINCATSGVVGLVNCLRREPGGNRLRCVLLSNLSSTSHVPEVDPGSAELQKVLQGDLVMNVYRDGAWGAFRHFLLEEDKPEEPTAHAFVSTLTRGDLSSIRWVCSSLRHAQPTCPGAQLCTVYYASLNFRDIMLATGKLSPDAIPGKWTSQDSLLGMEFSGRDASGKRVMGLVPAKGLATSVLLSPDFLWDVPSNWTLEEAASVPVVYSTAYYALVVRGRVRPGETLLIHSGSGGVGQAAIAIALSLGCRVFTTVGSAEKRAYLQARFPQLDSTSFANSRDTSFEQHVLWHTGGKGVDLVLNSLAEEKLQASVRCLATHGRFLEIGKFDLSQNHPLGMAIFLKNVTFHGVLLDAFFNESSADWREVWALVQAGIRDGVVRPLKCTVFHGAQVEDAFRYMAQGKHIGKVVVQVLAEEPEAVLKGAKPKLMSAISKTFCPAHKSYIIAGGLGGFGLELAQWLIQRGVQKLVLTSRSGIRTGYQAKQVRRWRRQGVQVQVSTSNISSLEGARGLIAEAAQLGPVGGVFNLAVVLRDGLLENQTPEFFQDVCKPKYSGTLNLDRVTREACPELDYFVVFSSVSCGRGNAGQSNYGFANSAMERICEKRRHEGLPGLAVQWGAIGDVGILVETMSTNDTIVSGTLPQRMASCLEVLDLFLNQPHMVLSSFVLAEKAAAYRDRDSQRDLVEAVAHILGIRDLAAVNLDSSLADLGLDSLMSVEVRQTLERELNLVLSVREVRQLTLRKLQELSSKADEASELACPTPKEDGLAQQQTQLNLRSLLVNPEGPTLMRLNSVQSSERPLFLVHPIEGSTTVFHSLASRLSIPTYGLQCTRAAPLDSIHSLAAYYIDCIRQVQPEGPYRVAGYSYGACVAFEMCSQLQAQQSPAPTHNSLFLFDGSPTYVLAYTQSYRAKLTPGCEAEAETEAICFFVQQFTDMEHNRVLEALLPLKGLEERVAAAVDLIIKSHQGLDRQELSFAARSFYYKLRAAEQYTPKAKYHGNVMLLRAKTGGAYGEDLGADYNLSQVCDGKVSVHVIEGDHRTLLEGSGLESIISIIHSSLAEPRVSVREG
# Fatty acid synthase [15] = target: T4, Fatty acid synthase; assay: FAS thioesterase domain inhibitors, dose response, biochemical, kinetic fluorescence intensity (AID 624326); assay type: functional;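 further: rate of fluorescence rise from hydrolysis of a fluorogenic O-methyl fluorescein ester substrate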
# Paired box protein Pax-8 = Paired box protein Pax-8 (Homo sapiens, UniProt Q06710); assay: inhibitors of PAX8-driven TPO luciferase reporter, dose response, RMG-I cells, cherry-pick (AID 687027); assay type: functional, cell-based;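 further: luciferase reporter driven by Pax8 target thyroperoxidase promoter measured by SteadyGlo luminescence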
# Chain of Paired box protein Pax-8 (Q06710 whole entry): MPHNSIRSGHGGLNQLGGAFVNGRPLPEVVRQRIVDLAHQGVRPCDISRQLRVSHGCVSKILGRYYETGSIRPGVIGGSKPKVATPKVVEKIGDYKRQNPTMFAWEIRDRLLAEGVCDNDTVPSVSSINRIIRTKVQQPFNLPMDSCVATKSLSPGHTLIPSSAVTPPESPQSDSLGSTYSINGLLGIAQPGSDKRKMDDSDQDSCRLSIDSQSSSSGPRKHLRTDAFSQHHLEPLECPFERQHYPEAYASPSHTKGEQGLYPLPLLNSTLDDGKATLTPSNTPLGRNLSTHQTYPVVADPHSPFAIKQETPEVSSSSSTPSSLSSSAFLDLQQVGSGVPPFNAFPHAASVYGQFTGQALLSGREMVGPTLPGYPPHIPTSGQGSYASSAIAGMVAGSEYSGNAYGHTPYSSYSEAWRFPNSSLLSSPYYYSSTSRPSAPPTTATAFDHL
# [16] = target: T5, Histone-lysine N-methyltransferase NSD2 (Homo sapiens, UniProt O96028); assay type: biochemical
# T5 sequence (O96028 whole entry): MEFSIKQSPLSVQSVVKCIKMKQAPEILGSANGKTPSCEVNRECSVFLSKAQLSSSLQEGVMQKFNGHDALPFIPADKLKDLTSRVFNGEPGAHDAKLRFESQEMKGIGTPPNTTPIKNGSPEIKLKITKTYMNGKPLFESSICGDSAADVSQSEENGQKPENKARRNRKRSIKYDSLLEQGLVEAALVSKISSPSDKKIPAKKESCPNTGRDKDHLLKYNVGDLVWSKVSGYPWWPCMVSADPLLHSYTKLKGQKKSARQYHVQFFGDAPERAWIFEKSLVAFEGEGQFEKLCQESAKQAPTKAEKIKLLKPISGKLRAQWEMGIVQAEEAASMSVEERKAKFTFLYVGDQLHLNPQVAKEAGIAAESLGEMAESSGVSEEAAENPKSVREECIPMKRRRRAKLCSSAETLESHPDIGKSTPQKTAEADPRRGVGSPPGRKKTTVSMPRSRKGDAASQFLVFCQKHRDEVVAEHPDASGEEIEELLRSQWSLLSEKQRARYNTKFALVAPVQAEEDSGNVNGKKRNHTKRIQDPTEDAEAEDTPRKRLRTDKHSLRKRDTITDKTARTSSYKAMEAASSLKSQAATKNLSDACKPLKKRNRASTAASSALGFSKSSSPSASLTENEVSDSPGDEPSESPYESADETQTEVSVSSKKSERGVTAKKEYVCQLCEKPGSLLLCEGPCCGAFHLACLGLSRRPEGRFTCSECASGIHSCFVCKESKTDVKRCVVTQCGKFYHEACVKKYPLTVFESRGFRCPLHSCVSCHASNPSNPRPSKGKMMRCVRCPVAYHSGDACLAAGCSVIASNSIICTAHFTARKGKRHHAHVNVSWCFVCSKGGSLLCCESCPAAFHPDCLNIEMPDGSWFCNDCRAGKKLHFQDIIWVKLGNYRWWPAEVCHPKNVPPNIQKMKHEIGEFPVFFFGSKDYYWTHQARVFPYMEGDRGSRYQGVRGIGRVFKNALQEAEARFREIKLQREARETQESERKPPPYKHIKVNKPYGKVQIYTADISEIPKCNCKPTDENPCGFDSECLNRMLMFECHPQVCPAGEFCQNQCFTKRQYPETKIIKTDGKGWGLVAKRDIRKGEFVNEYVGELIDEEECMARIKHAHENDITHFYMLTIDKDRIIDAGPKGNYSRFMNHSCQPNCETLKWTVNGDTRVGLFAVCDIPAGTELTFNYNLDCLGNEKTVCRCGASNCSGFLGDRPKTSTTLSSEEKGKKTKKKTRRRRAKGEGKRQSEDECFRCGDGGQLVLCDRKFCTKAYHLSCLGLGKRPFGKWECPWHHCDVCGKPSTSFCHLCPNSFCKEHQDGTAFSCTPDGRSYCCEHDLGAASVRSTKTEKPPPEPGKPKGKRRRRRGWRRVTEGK
# [17] = target: T6, Tyrosyl-DNA phosphodiesterase 2 (Homo sapiens, UniProt O95551); assay: human TDP2 enzyme inhibitors, dose response, biochemical, epi absorbance, IC50 (AID 743297)
# T6 sequence (O95551 whole entry): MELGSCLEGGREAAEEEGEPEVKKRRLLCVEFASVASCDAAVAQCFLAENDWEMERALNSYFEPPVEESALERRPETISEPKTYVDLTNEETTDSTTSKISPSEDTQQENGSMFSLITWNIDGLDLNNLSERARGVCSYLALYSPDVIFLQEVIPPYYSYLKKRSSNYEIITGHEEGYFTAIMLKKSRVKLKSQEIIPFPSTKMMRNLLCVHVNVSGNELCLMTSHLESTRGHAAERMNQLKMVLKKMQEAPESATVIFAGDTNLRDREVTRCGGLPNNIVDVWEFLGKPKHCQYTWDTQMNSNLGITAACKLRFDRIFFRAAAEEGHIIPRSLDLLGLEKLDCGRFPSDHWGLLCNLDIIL
# [18] = P. falciparum 3D7-ScDHODH growth inhibitors, dose response, SYBR Green, dry powder samples (AID 1159570); assay type: functional, cell-based;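 further: parasite growth measured after 72 hours of compound exposure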
# [19] = P. falciparum Dd2 growth inhibitors, dose response, SYBR Green, cherry-picked samples (AID 1159567); assay type: functional, cell-based
# [20] = P. falciparum Dd2 growth inhibitors, dose response, SYBR Green, dry powder samples (AID 1159566); assay type: functional, cell-based;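 further: potency for growth inhibition with lower SYBR green DNA signal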
# [21] = P. falciparum ATP4 D1247Y mutant growth inhibitors, dose response, NITD609-resistant line, SYBR Green, dry powder (AID 1159571); assay type: functional, cell-based;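 further: parasites synchronized at ring stage by sorbitol before testing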
structure (smiles),measurement,setting,value
COc1ccc(-c2ccc3c(N)c(C(=O)NC(C)C)sc3n2)cc1OC,CC50,[1],> 50 µM (active)
same,IC50,cells,35.9 µM (active)
Cc1ccc(C(=O)C2=C(O)C(=O)N(c3cc(C)on3)C2c2cccc(Br)c2)cc1 (stereo unspecified),Ki,fMet-Leu-Phe receptor,> 66.7 µM (inactive)
O=S(=O)(c1ccc2c(c1)OCCO2)N1CCC(c2nc(O)c3nnn(Cc4c(F)cccc4Cl)c3n2)CC1,CC50,[1],34.2 µM (active)
same,IC50,cells,9.34 µM (active)
COc1ccccc1-c1cc2nc(C)cc(C)n2n1,CC50,[1],22.5 µM (active)
same,IC50,cells,18.8 µM (active)
C/C(=C\C(=O)c1ccc(Br)cc1)N1CCCCC1,IC50,[2],> 100 µM (active)
Cc1nc2c(C#N)cnn2c(O)c1Cc1ccccc1,Ki,fMet-Leu-Phe receptor,27.4 µM (inactive)
CCc1nc(N2CCN(C(=O)CCl)CC2)c2c3c(sc2n1)CC(C)CC3 (stereo unspecified),EC50,HEK293 [3],> 20 µM (inactive)
same,EC50,BJ [4],1.62 µM (active)
same,IC50,HEK293 [5],8.57 µM (active)
same,EC50,BJ [6],9.44 µM (inconclusive)
same,IC50,HEK293 [7],> 20 µM (inactive)
same,IC50,HEK293 [8],12 µM (inactive)
same,EC50,BJ [9],5.72 µM (inconclusive)
same,EC50,[10],5.84 µM (active)
same,AC50,[11],1.92 µM (active)
same,EC50,Protein RecA,0.729 µM (active)
CC1Cc2cc(C(=O)C3=C(O)C(=O)N(CCN4CCOCC4)C3c3ccccc3F)ccc2O1 (stereo unspecified),Ki,fMet-Leu-Phe receptor,> 66.7 µM (inactive)
Cc1ccc(-n2nnnc2SCn2nnc3ccccc3c2=O)cc1,IC50,[2],> 100 µM (active)
Cc1ccc2c(c1C)-c1c(ccc(C)c1C)C(=O)C2=O,AC50,[12],2.79 µM (active)
same,AC50,[13],3.16 µM (active)
same,IC50,Fatty acid synthase [14],7.89 µM (active)
same,IC50,Fatty acid synthase [15],5.23 µM (active)
same,AC50,Paired box protein Pax-8,3.67 µM (active)
same,AC50,[16],0.531 µM (active)
same,IC50,[17],8.67 µM (active)
CCN(CC(=O)Nc1c(F)cccc1F)C(=O)CSC(=S)N1CCCC1,IC50,[2],> 100 µM (active)
CCOC(=O)CSc1nnc(CNC(=O)c2cc(OCC)c(OCC)c(OCC)c2)n1C,Ki,fMet-Leu-Phe receptor,> 66.7 µM (inactive)
COC(=O)N/N=C/c1ccc(-c2cccc(Cl)c2)o1,CC50,[1],28.3 µM (active)
same,IC50,cells,24.9 µM (active)
COc1ccc(C#Cc2ccc3c(c2)O[C@H](CN(C)S(=O)(=O)c2ccccc2F)[C@@H](C)CN([C@H](C)CO)S3(=O)=O)cc1,AC50,[18],1.38 µM (active)
same,AC50,[19],1.7 µM (active)
same,AC50,[20],1.12 µM (active)
same,AC50,[21],1.21 µM (active)
